The target in test [1] is T1, Lysosomal acid glucosylceramidase (Homo sapiens, UniProt P04062).
T1 sequence (P04062 whole entry): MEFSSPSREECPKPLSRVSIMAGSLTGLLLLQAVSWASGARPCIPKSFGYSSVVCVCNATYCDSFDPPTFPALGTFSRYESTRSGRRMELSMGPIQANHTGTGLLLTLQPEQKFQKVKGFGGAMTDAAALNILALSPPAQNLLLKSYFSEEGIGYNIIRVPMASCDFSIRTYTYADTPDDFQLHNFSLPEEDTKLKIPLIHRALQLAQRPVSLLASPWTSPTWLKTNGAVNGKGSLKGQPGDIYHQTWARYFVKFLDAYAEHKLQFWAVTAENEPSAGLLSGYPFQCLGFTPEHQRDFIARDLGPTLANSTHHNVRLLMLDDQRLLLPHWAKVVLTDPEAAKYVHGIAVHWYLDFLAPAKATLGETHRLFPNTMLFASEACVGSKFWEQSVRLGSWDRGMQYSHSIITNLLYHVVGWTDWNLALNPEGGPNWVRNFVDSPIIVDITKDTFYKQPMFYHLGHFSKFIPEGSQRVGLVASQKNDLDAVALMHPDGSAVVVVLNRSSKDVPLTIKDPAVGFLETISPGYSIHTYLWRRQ

For test [2], the target named is T2, Beta-glucosidase (Homo sapiens, UniProt Q9HCG7).
T2 sequence (Q9HCG7 whole entry): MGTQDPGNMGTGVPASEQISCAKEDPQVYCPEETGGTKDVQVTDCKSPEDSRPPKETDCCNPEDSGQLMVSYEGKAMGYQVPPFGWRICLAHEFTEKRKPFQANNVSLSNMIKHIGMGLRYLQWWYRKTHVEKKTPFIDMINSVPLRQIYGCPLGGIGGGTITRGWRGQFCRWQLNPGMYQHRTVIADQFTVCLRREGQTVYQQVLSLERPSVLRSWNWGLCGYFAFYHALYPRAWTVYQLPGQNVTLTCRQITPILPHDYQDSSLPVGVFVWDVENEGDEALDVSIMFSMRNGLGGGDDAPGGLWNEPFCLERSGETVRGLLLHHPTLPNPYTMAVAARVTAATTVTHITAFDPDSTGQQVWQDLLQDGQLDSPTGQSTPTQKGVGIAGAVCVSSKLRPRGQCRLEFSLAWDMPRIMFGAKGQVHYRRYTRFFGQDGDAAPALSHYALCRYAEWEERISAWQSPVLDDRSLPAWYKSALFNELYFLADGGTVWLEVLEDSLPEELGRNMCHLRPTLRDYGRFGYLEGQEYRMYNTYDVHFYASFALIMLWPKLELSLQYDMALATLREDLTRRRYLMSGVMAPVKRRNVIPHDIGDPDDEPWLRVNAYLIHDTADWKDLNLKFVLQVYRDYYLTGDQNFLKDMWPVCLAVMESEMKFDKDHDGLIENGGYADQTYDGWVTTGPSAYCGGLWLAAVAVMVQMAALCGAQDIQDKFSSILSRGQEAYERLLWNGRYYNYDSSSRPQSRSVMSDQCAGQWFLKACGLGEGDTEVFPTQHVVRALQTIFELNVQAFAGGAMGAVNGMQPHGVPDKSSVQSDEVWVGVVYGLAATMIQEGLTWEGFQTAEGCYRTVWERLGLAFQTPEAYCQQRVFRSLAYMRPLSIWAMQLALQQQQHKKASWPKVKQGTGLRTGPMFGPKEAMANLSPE

The target in test [3] is T3, Ceramide glucosyltransferase (Homo sapiens, UniProt Q16739).
T3 sequence (Q16739 whole entry): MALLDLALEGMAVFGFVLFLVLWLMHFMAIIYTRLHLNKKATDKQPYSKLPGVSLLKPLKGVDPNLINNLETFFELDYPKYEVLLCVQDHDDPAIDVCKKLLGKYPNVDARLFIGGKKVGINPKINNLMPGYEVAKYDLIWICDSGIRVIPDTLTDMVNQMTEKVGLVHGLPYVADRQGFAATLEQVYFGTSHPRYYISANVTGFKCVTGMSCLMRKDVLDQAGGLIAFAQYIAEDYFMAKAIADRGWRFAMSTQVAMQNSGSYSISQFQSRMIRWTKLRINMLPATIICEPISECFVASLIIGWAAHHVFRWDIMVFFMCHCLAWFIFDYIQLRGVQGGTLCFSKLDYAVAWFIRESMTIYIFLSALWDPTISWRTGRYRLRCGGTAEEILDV

For test [4], the target named is Sucrase-isomaltase, intestinal (Homo sapiens, UniProt P14410). The test is described as follows: Inhibition of intestinal sucrase (unknown origin).
Chain of Sucrase-isomaltase, intestinal (P14410 2-1007 limits assumed): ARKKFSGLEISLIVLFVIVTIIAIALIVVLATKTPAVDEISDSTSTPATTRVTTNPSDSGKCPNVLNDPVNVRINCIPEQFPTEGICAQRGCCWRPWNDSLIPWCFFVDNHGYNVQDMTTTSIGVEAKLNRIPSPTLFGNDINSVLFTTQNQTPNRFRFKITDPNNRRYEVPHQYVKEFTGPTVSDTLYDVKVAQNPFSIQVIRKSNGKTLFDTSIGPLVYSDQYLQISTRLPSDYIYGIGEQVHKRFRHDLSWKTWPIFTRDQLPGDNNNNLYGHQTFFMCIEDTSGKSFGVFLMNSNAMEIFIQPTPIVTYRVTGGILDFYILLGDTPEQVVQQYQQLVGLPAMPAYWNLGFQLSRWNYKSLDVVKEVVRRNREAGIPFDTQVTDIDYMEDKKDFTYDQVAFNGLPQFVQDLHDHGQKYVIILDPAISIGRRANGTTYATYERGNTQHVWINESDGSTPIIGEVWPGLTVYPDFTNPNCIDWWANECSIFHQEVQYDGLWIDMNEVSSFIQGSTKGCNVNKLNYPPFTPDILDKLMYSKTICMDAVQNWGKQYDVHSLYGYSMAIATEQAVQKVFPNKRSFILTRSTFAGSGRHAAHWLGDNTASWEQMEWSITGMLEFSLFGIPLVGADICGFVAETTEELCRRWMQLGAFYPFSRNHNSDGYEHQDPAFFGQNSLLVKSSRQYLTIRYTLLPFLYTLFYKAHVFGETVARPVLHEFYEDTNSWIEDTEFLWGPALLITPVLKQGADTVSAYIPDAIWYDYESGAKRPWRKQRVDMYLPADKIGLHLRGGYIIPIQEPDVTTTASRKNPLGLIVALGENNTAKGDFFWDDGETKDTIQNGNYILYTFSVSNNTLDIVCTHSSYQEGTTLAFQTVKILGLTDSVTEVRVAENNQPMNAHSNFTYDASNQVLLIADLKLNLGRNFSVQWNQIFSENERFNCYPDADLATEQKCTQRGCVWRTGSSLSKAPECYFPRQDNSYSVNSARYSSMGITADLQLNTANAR
Chain of Sucrase-isomaltase, intestinal (P14410 1008-1827 limits assumed): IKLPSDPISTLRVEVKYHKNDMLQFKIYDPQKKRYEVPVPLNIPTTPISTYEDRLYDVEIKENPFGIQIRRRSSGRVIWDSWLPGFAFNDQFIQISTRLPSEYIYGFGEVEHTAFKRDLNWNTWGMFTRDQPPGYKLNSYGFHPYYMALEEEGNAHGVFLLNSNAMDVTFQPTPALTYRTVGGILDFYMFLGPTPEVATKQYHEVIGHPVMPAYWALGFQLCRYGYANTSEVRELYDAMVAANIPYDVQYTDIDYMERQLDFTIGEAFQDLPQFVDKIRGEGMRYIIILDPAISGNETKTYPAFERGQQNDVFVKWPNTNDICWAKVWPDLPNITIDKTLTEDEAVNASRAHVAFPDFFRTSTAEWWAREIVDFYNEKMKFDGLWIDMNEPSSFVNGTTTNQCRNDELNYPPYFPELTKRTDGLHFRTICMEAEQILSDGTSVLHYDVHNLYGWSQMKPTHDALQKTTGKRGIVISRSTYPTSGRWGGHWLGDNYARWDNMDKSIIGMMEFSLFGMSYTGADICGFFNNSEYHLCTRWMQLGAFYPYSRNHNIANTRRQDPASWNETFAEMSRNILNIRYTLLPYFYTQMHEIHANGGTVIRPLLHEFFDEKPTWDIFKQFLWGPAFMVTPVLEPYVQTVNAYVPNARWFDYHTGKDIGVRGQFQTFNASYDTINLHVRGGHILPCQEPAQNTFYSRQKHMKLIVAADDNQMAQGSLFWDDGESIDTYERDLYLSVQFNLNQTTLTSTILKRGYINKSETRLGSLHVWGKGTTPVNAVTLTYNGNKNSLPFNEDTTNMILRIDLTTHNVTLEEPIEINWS
Test [5] has as its target Lactase/phlorizin hydrolase (Homo sapiens, UniProt P09848). The test is described as follows: Inhibition of intestinal lactase (unknown origin).
Test [6] concerns the target Maltase-glucoamylase (Homo sapiens, UniProt O43451). The test is described as follows: Inhibition of intestinal maltase (unknown origin).
The target of test [7] is T3, Ceramide glucosyltransferase. This is another data set of the same source.

Chain of Lactase/phlorizin hydrolase (P09848 869-1927 limits assumed): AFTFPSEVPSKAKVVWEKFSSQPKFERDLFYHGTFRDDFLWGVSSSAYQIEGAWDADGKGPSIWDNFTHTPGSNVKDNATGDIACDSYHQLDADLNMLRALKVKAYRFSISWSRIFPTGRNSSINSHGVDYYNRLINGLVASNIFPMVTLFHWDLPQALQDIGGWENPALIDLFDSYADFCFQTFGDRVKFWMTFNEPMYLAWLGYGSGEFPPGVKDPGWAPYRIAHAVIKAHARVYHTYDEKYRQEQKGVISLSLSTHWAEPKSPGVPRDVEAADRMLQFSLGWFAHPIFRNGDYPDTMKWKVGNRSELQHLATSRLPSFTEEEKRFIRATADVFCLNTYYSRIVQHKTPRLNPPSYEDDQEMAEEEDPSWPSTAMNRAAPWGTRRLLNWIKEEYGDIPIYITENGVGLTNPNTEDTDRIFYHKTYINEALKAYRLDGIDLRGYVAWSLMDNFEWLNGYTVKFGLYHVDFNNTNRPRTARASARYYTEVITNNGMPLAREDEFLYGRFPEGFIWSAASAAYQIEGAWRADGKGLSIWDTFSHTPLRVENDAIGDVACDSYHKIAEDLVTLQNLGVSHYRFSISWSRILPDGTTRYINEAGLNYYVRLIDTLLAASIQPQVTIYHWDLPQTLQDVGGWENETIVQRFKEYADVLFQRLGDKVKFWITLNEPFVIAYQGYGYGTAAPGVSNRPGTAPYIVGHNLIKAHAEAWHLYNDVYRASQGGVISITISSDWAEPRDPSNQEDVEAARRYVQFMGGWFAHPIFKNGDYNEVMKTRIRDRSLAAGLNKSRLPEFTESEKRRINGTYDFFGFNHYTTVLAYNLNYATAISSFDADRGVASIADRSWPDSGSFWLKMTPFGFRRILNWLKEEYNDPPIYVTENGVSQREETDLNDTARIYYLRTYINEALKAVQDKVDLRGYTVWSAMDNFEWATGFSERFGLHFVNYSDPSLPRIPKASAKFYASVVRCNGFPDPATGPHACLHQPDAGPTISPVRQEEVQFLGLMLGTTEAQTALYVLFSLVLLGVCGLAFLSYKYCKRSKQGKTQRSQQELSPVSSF

Regarding `OC[C@@H]1[C@@H](O)[C@H](O)[C@@H](O)CN1CCCC/C=C\C12CC3CC(CC(C3)C1)C2`, the figures for the IC50 in test [1], in test [2] and in test [3] were 500 nM, 5 nM and “Not Active”, respectively.
For `OC[C@@H]1[C@@H](O)[C@H](O)[C@@H](O)CN1CCCCCCC12CC3CC(CC(C3)C1)C2` the same measures were 60 nM, 10 nM and “Not Active”.
For `CC(C)=CCC/C(C)=C/CC/C(C)=C/CCOCCCCCN1C[C@H](O)[C@@H](O)[C@H](O)[C@H]1CO` the same measures were 2500 nM, 100 nM and “Not Active”.
For `OC[C@@H]1[C@@H](O)[C@H](O)[C@@H](O)CN1CCCCCOCc1cc2ccccc2c2ccccc12` the same measures were 10000 nM, 100 nM and “Not Active”.
For `OC[C@H]1[C@@H](O)[C@H](O)[C@@H](O)CN1CCCC/C=C\C12CC3CC(CC(C3)C1)C2`, the IC50 in test [1] is 12000 nM; in test [2] it was 8 nM; in test [3], “Not Active”.
The corresponding values for `OC[C@H]1[C@@H](O)[C@H](O)[C@@H](O)CN1CCCCCCC12CC3CC(CC(C3)C1)C2` are 25000 nM, 20 nM and “Not Active”.
For `OC[C@H]1[C@@H](O)[C@H](O)[C@@H](O)CN1CCCCCOCc1cc2ccccc2c2ccccc12` the same measures were 600000 nM, 200 nM and “Not Active”.
Consider `OC[C@@H]1[C@@H](O)[C@H](O)[C@@H](O)CN1CC(F)(F)CCCOCc1ccc(-c2ccccc2)cc1`, for which the IC50 was 35000 nM in test [4]; greater than 100000 nM in test [5]; greater than 100000 nM in test [6]; 1250 nM in test [7]; 125 nM in test [1]; 10 nM in test [2].
`OC[C@@H]1[C@@H](O)[C@H](O)[C@@H](O)CN1CCCC(F)(F)COCc1ccc(-c2ccccc2)cc1`: the IC50 is 400 nM in test [4]; 27000 nM in test [5]; 9000 nM in test [6]; 60 nM in test [7]; 300 nM in test [1]; 1 nM in test [2].
Regarding `C[C@H](OCCCCCN1C[C@H](O)[C@@H](O)[C@H](O)[C@H]1CO)c1ccc(-c2ccccc2)cc1`, the IC50 in test [4] is 250 nM; in test [5], 9000 nM; in test [6], 2500 nM; in test [1], 400000 nM; in test [2] it was 3 nM.
The corresponding values for `C[C@@H](OCCCCCN1C[C@H](O)[C@@H](O)[C@H](O)[C@H]1CO)c1ccc(-c2ccccc2)cc1` are 500 nM, 35000 nM, 4000 nM, 300 nM and 3 nM.
Consider `OC[C@@H]1[C@@H](O)[C@H](O)[C@@H](O)CN1CCCCCOCc1ccc(-c2ccccc2)cc1F`, for which the IC50 amounted to 250 nM in test [4], 30000 nM in test [5], 2500 nM in test [6] and 0.08 nM in test [2].
For `OC[C@@H]1[C@@H](O)[C@H](O)[C@@H](O)CN1CCCCCOCc1ccc(-c2ccccc2)c(F)c1` the same measures were 400 nM, 20000 nM, 3000 nM and 0.08 nM.
Regarding `OC[C@@H]1[C@@H](O)[C@H](O)[C@@H](O)CN1CCCCCOCc1ccc(-c2ccccc2)c(C(F)(F)F)c1`, the IC50 in test [4] came out at 1250 nM; in test [5], 45000 nM; in test [6] it was 7000 nM; in test [2], 0.08 nM.
Take `OC[C@H]1[C@@H](O)[C@H](O)[C@@H](O)CN1CCCCCOCc1cccc(-c2ccccc2)c1`: the IC50 in test [4] is 100000 nM; in test [5], 60000 nM; in test [6] it was greater than 100000 nM; in test [7], 70 nM.
In the case of `OC[C@H]1[C@@H](O)[C@H](O)[C@@H](O)CN1CC(F)(F)CCCOCc1ccc(-c2ccccc2)cc1`, the IC50 is greater than 100000 nM in test [4], greater than 100000 nM in test [5], greater than 100000 nM in test [6] and 20 nM in test [7].
`OC[C@H]1[C@@H](O)[C@H](O)[C@@H](O)CN1CCCCCOCc1ccc(-c2ccccc2)c(C(F)(F)F)c1`: the IC50 in test [4] was greater than 100000 nM; in test [5], 100000 nM; in test [6], greater than 100000 nM.
As to `OC[C@H]1[C@@H](O)[C@H](O)[C@@H](O)CN1CCCCCOCc1ccc(-c2ccccc2)cc1F`, the IC50 in test [4] was greater than 100000 nM; in test [5], 60000 nM; in test [6], greater than 100000 nM.
For `OC[C@H]1[C@@H](O)[C@H](O)[C@@H](O)CN1CCCCCOCc1ccc(-c2ccccc2)c(F)c1` [NIZUBAGLUSTAT], the IC50 in test [4] is greater than 100000 nM; in test [5], 50000 nM; in test [6] it was greater than 100000 nM.

In general, IC50 refers to the midpoint of a concentration-inhibition curve. A high value points to weaker potency.

The values are drawn from ChEMBL document CHEMBL3352260, “Identification and development of biphenyl substituted iminosugars as improved dual glucosylceramide synthase/neutral glucosylceramidase inhibitors” (J Med Chem, 2014).
